This assay addresses Albumin (Homo sapiens, UniProt P02768). Nature of the assay: Binding affinity towards human serum albumin.

Structures are written as SMILES.

Albumin, sequence (P02768 whole entry): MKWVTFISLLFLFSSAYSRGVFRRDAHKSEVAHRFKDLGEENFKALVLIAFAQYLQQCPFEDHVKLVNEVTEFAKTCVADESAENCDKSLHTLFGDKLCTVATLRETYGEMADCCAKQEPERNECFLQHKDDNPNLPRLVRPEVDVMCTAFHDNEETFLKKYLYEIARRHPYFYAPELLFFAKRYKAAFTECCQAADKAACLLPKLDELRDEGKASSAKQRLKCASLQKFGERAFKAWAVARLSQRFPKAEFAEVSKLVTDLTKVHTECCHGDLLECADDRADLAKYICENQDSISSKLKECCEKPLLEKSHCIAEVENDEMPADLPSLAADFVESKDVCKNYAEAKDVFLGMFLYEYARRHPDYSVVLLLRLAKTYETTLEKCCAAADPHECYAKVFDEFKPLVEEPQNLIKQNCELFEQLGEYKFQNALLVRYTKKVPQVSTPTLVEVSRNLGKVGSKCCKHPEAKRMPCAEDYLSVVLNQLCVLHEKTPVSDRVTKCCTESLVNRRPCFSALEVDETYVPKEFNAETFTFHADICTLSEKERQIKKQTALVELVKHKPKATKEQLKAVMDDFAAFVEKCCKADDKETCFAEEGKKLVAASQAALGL

Take `CC(C)Cc1ccc([C@@H](C)C(=O)NS(C)(=O)=O)cc1` [(R)-2-(4-isobutylphenyl)-N-(methylsulfonyl)propanamide]: the Association constant (Ka) was 1.65e+06 M⁻¹.
Same read-out and setting: the value for `Nc1cccc(-c2ccc(O)c(C(=O)O)c2)c1` was 2750 M⁻¹.
On the same count and under the same terms, the value for `CC(C)Cc1ccc([C@@H](C)C(=O)NCCCN(C)C)cc1` was 5010 M⁻¹; that for `O=C(O)c1cccc(-c2ccc(Cl)cc2Cl)c1` was 23900 M⁻¹.
The same measure, in the same setting: the value for `O=C(O)c1cc(-c2ccccc2)ccc1O` [2-Hydroxy-5-phenylbenzoic acid] was 100000 M⁻¹; that for `Nc1cccc(-c2cccc(C(=O)O)c2)c1` was 7760 M⁻¹; that for `O=C(O)c1cccc(-c2ccccc2)c1` was 251000 M⁻¹.
Regarding `Cc1cc(CC(=O)O)n(C)c1C(=O)c1ccc(Cl)cc1`, the Association constant (Ka) is 109000 M⁻¹.
The compound `COc1ccc2c(c1)CN(c1ccc(C(C)C(=O)O)cc1)C2=O` (stereo not given) gave an Association constant (Ka) of 81200 M⁻¹.
Turning to `Cc1ccc(C(=O)c2ccc(CC(=O)O)n2C)cc1` [2-(1-methyl-5-(4-methylbenzoyl)-1H-pyrrol-2-yl)acetic acid], the Association constant (Ka) came out at 416000 M⁻¹.
With `CC(Cc1ccc([C@@H](C)C(=O)NS(C)(=O)=O)cc1)C(=O)O` (stereo not given in full), the Association constant (Ka) stood at 3890 M⁻¹.
Compound `CS(=O)(=O)Nc1ccc([N+](=O)[O-])cc1Oc1ccccc1` came in with a Ki of 15100 M⁻¹.
As for `CC(C)Cc1ccc([C@@H](C)C(=O)N[C@H](C)C(=O)O)cc1`, the Association constant (Ka) was 39800 M⁻¹.
The same measure, in the same setting: for `CC(C)NCC(O)c1ccc(NS(C)(=O)=O)cc1` (racemic) [Sotalol,(-)] the value was 354 M⁻¹.
In the case of `O=C(O)c1cccc(-c2cc(C(F)(F)F)cc(C(F)(F)F)c2)c1`, the Association constant (Ka) was 3090 M⁻¹.
The compound `NCc1cc(-c2ccc(C(=O)O)cc2)ccc1F` returned an Association constant (Ka) of 1000 M⁻¹.
On the same count and under the same terms, for `CC(C(=O)O)c1ccc(-c2ccccc2)c(F)c1` (racemic) [2-(2-fluoro-[1,1'-biphenyl-4-yl])propanoic acid] the value was 331000 M⁻¹.
Still for that read-out and setting: for `CC(C)Cc1ccc([C@@H](C)C(=O)NCCOCCO)cc1` the value was 8120 M⁻¹.
The compound `Oc1ccc(-c2ccccc2)cc1` [4-Hydroxybiphenyl] registered an Association constant (Ka) of 9540 M⁻¹.
Same read-out and setting: the value for `C[C@@H](C(N)=O)c1ccc(OS(=O)(=O)C(F)(F)F)cc1` was 19000 M⁻¹; that for `Cc1ccc(S(=O)(=O)NC(=O)NN2CCCCCC2)cc1` [CHEBI:9613] was 53700 M⁻¹.
Still for that read-out and setting: the value for `CC(C)c1ccc(O)c(C(=O)O)c1` was 26300 M⁻¹.
`Nc1ccc(-c2cccc(C(=O)O)c2)cc1`: the Association constant (Ka) worked out at 6160 M⁻¹.
The same measure, in the same setting: for `O=C(O)c1ccc(-c2ccccc2)cc1` [Biphenyl-4-carboxylic acid] the value was 199000 M⁻¹.
Same read-out and setting: the value for `NS(=O)(=O)c1cc2c(cc1Cl)NCNS2(=O)=O` [JFD00715] was 2290 M⁻¹.
`O=C(O)c1cc(Cl)ccc1O` [5-Chloro-2-hydroxy-benzoic acid] registered an Association constant (Ka) of 21300 M⁻¹.
Still for that read-out and setting: the value for `CC(C)(C)c1ccc(O)c(C(=O)O)c1` was 20400 M⁻¹; that for `NCc1ccc(-c2ccc(C(=O)O)cc2)cc1` was 1000 M⁻¹; that for `C[C@@H](C(=O)NS(C)(=O)=O)c1ccc(OS(=O)(=O)C(F)(F)F)cc1` [DF-2156A] was 831000 M⁻¹.
In turn, `O=C(O)c1cccc(-c2cc(Cl)cc(Cl)c2)c1` displayed an Association constant (Ka) of 5750 M⁻¹.
Still for that read-out and setting: for `C[C@@H](C(=O)NCCN1CCCC1)c1ccc(OS(=O)(=O)C(F)(F)F)cc1` the value was 3890 M⁻¹; for `O=C(c1ccccc1)c1ccc2n1CCC2C(=O)O` (stereo not given) [Toradol], 208000 M⁻¹.
`CC1=C(CC(=O)O)c2cc(F)ccc2/C1=C\c1ccc([S+](C)[O-])cc1` (stereo not given) [Sulindac] showed an Association constant (Ka) of 26300 M⁻¹.
Still for that read-out and setting: the value for `CCCNC(=O)NS(=O)(=O)c1ccc(Cl)cc1` [1-(4-chlorophenylsulfonyl)-3-propylurea] was 39800 M⁻¹.
In the case of `C[C@@H](C(=O)NCCCN1CCCC1)c1ccc(OS(=O)(=O)C(F)(F)F)cc1`, the Association constant (Ka) turned out to be 2690 M⁻¹.

The record behind these values is BindingDB's records for doi:10.1021/jm049227l (Molecular Discovery, 2005).
